For two compounds, MIC and MIC ratio results are on record in patent US20150322033A1, “ANTIBACTERIAL AGENT” (priority 2012, published 2015).

Test [1] deals with S. aureus Mu50 NR1-1. The experiment in a line: MIC by broth microdilution, S. aureus Mu50 NR1-1. Format: cell-based. The following applies: Staphylococcus aureus, MU50NR11; Example 3, Table 13; read-out: MIC (mg/L) Mu50 NR1-1 (S80F, w). The protocol:
MIC values of the flavones and quinolone for the strains were measured in the same manners as those of Example 1, except that S. aureus Mu50 NR-1 was also used as Staphylococcus aureus in addition to S. aureus FDA209P and S. aureus Mu50, cell suspensions of the strains were prepared.
S. aureus Mu50 NR1-1 mentioned in Table 13 is a strain selected stepwise from the clinically isolated S. aureus Mu50 strain with deoxynybomycin, and it has a topoisomerase IV encoded by parC in which a […] (see, Hiramatsu K. et al., J. Antimicrob. Agents, 2012, June; 39 (6), 478-85).
In Table 13, the descriptions in the parentheses after the strains indicate the mutated amino acid residue and its position, as represented by (the mutation of topoisomerase IV resulting from the mutation of parCand the mutation of DNA gyrase resulting from the mutation of gyrA). The character “w” means wild-type, representing without mutation.
Background: Dilution methods test growth across graded concentrations, often in twofold steps.

In test [2] the test system is S. aureus Mu50. The test can be described thus: microbe, parasite or virus in culture. The format is cell-based, Staphylococcus aureus. The following applies: for MIC ratio: (MIC value for S. aureus FDA209P)/(MIC value for S. aureus Mu50); for MIC: Staphylococcus aureus. In outline: (§1)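 Overnight TSB cultures at 37 °C adjusted to A578 0.3, diluted 500-fold in CAMHB and mixed 1:1 with compound in CAMHB; static overnight incubation at 37 °C. MIC reported in mg/L; Mu50 NR-1 also tested in some runs.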

Test [3] relates to S. aureus FDA209P (ATCC 6538P). The experiment in a line: microbe, parasite or virus in culture. Format: cell-based, Staphylococcus aureus. The following applies: Staphylococcus aureus. In outline:
as §1

The mark [4] stands for this setting: MU50, read-out: MIC (mg/L) S. aureus Mu50, Example 2, Table 12.
The mark [5] stands for this setting: Example 2, Table 12, read-out: MIC (mg/L) S. aureus FDA209P.
Where [6] appears, read: Example 3, Table 13, read-out: MIC (mg/L) FDA209P (w, w).

Values after ≈ are worked out from the molar mass of the structure shown. Read-outs that look alike come from different tables or passages of the source.

As for `O=c1cc(-c2ccc(O)cc2)oc2cc(O)cc(O)c12` [No. 7, 4′,5,7-Trihydroxyflavone], the MIC in test [1] is greater than 128 mg/L; in test [2] (MU50, read-out: MIC (mg/L) Mu50, Example 1, Tables 1 to 10), 4 mg/L (≈ 14.8 µM); in test [2] (setting [4]) it was 4 mg/L (≈ 14.8 µM); in test [3] (Example 1, Tables 1 to 10, read-out: MIC (mg/L) FDA209P), greater than 128 mg/L; in test [3] (setting [5]), greater than 128 mg/L; in test [3] (setting [6]), greater than 128 mg/L. For the same compound, the values for the MIC ratio in test [2] and in test [2] (listed as apigenin) were greater than 32 and no less than 32, respectively.

Take `C[C@H]1COc2c(N3CCN(C)CC3)c(F)cc3c(=O)c(C(=O)O)cn1c23` [Levofloxacin, levofloxacin, reference compound]: the MIC turned out to be 1 mg/L (≈ 2.77 µM) in test [1], 8 mg/L (≈ 22.1 µM) in test [2] (setting [4]), 0.125 mg/L (≈ 0.346 µM) in test [3] (setting [5]) and 0.125 mg/L (≈ 0.346 µM) in test [3] (setting [6]). Further, in test [2], the MIC ratio is 0.016.
